Where a name gives a salt, the structure may show the parent alone.
Legend:
Type in all cases: cell-based
[1] = test system: human fetal astrocytes derived from cerebral cortex; experiment: Transcriptome analysis of astrocyte cultures treated with MMF, DRF, IDMF; conditions: 2.5 μM, 24 hours
Description: Experiments were performed using human fetal astrocytes derived from cerebral cortex (cat. no. 882A-05f; Cell Applications, Sant Diego, Calif.). Cells were grown to subconfluence in human astrocyte growth medium (cat. no. 820-500, Cell Applications). […] Test materials were added to subconfluent cultures at a concentration of 2.5 μM and cells were incubated for 24 hours.
RNA was extracted following the incubation period using the RNAeasy Mini Plus kit (Qiagen, Hilden, Germany) and robotic Qiacube Connect station (Qiagen). Samples were shipped on dry ice to the Thermo Fisher Microarray Research Services Laboratory (Santa Clara, Calif.) for transcriptome analysis. RNA quality analysis was performed upon sample receipt using the NanoDrop Lite (Thermo Fisher Scientific, Waltham, Mass.). All samples had 260/280 nm absorbance ratios higher than 1.90, consistent with high-purity RNA.
In follow-up to the study of Example, 1 above, genes associated with multiple sclerosis were identified based upon seven established database sources: (1) the NHGRI-EBI genome-wide association (GWA) study catalogue, (2) the Disease Ontology (DO) database, (3) the DisGeNET (curated) database, (4) the DisGeNET (BeFree), (5) MalaCards, (6) the Medical Subject Heading (MESH) database and the KEGG Database. The impact on gene expression of IDMF, MMF and DRF on the key overlapping MS-associated genes was assessed.
The specific data for four of the key NFR2 target genes associated with antioxidant and anti-inflammatory effects is presented in FIGS. 7(A) thru 7(D).
Both TNFAIP3 and NFKBIA encode inhibitory proteins that suppress the NF-KB pathway. Specifically, TNFAIP3 encodes a deubiquitinating enzyme previously linked to MS by genetic association studies: a TNFAIP3 protein abundance is increased in white matter and cortical lesion astrocytes from MS patient brains. Similarly, NFKBIA (IκBα) encodes an NF-KB inhibitor for which promoter polymorphisms have been associated with MS and abundance of this protein is prominent in macrophage nuclei of MS plaques undergoing active demyelination. ICAM1 encodes an endothelial adhesion molecule that promotes leucocyte extravasation and is associated with the initiation and progression of inflammation as well as the targeting of inflammation in the central nervous system (CNS). FIGS. 9(A), 9(B) and 9(C) show the specific data for these three genes.
Genetic variants of IFR has been associated with MS and some MS treatments such as glatiramer acetate block cytokine-stimulated IRF1 up-regulation. An assessment was undertaken to assess the relative impact of fumarate esters, namely MMF, DRF and IDMF on IFR motif enrichment.

[2] = test system: cytokine-treated neonatal human epidermal keratinocytes (HEK); experiment: qPCR of pro-inflammatory and antioxidant genes in cytokine-treated keratinocytes; conditions: 4 μg/ml, 24 h, IL-17A/IL-22/TNFα treated HEK
Description: A separate assay study was conducted on cytokine-treated neonatal human epidermal keratinocytes (HEK) looking at the expression impact of IDMF and dimethyfumarate (DMF) on key pro-inflammatory and antioxidant genes. In preparation for the assay, HEK (p2; Cell Applications, San Diego) were cultured at optimal conditions [keratinocyte growth medium supplemented with KGM-Gold Bullet kit (Lonza, Switzerland)] to form a segmented monolayer. A cytokine mix of IL-17A/IL-22/TNFα (100 ng/ml; 100 ng/ml; 10 ng/ml; Antigenix, Huntington Station, N.Y.) was added and the cell cultures incubated for 24 h. […] Thereafter, each test material was added to the cultures at 4 μg/ml (final concentration) in triplicate and the cultures incubated for a further 24 hours.
After the 24-hour incubation with the test materials, the cells were observed through a Nikon Eclipse TS100 inverted microscope. No gross morphological changes were recorded. RNA was then extracted and purified with NucleoSpin RNA II kit from Machery-Nagel, Bethlehem, Pa., using QiaCube robotic station (Qiagen, Valencia, Calif.). Purified total RNA was assessed at 260 nm and 280 nm with NanoDrop Lite (Thermo Fisher Scientific, Waltham, Mass.), pure samples with A260A/280 and A260/A230 ratios of >1.7 were standardized and the expression of the genes of interest (Table 3) was measured by real-time quantitative PCR with BioRad iCycler iQ Detection System using custom-made PCR arrays (Qiagen, Valencia, Calif.; part #24caph12190), 5×All-In-One 1st Strand cDNA Synthesis Mix (Bioland Scientific, Paramount, Calif.) and 2×qPCR Master Mix (Bioland). Efficiency ΔΔCt method was used for quantification of results, after the normalization of gene expression to GAPDH/PPIA housekeeping gene. Genes were considered differentially expressed if the level of expression was reasonably high (less than 30 cycles to detect) and the modulation was >1.7. […] Even assuming IDMF fully metabolizes to MMF, there is still considerably more MMF from DMF as opposed to the same amount, based on weight, of IDMF.

human fetal astrocytes = experiment: A1 v A2 marker activation, RNA-seq of H2O2-stimulated astrocytes; conditions: 2.5 μM, 24 hrs, H2O2 (50 μM) stimulated
Description: The treated cells were stimulated with H2O2 (50 μM) for 20 min and the RNA extracted 1 day later and sequenced using the Illumina HiSeq 2000 with an average of 39.3 million reads per sample. Reads were mapped to the GHch38/hg38 genome. 13,968 protein-coding genes had detectable expression on average among the 6 samples. Differentially expressed genes (DEGs) were identified using negative binomial models with FDR threshold of <0.10 and fold change (FC) criteria (FC>1.30 or FC<0.77). Gene set enrichment testing was performed using public database annotations. Motif enrichment with respect to DEG up-stream regions was characterized using semiparametric generalized additive logistics models. The overlap between the identified DEGs and MS-associated genes, i.e., genes from MS patients and genes linked to inflammatory (A1) and ischemic (A2) astrogliosis.

expression of heme oxygenase-1 (HMOX1) [1]: marked increase in expression
SMILES: COC(=O)/C=C/C(=O)O[C@H]1CO[C@H]2[C@@H]1OC[C@H]2OC(=O)/C=C/C(=O)OC [IDMF, isosorbide di-(methyl fumarate)]
IRF1 expression [1]: marked downregulation
effect on NRF2 target genes compared with MMF and DRF [1]: much more pronounced effect
effect on TNFAIP3, NFKBIA and ICAM1 expression [1]: marked downregulation
CXCL3 fold change [2]: −1.1 fold
IL8 fold change [2]: 1.4 fold
NFE2L2 fold change [2]: 2.6 fold
PTGS2 fold change [2]: 1.2 fold
ICAM1 expression (human fetal astrocytes): downregulate
expression of genes linked to A2-polarization (human fetal astrocytes): tended to increase the expression
expression of genes linked to pan-reactive gliosis (human fetal astrocytes): decreasing

From patent US20220142967A1, “Methods and Compositions for the Treatment of Multiple Sclerosis” (SYMBIONYX PHARMACEUTICALS INC, priority 2018, published 2022)
